# Laboratory results published in patent US20260015581A1, “METHODS FOR THE PRODUCTION OF RETINAL CELLS” (MIAMI UNIVERSITY, priority 2018, published 2026).
# System: PGP1-derived RPE
# Test: Small molecule screen for reprogramming of PGP1-derived RPE to neural retina (induction of fluorescent reporter expression)
# Conditions: 40 μM; D0, D5 and D10 of treatment (FIG. 21)
# Method: A second small molecule screen tested 180 compounds at a concentration of 40 μM designed to target epigenetic pathways (from the Selleck Chemicals Epigenetic Compounds Library L1900).
row,Compound,subsequent induction of eGFP expression (retinal ganglion cell reporter) in PGP1-derived RPE
1,BI 847325,subsequently induces the expression of eGFP

# Same assay, conditions: Selleck Chemicals Epigenetic Compounds Library L1900; 40 μM
row,Compound,induction of Cerulean expression in PGP1-derived RPE
1,O=C(O)c1ccc(O)c2ncccc12 [Carboxy-8-hydroxyquinoline],showed evidence of inducing Cerulean expression
2,CCn1cc(-c2cccc(C(F)(F)F)c2)c2sc(C(=N)NC3CCS(=O)(=O)CC3)cc2c1=O [I-BRD9],showed evidence of inducing Cerulean expression
3,Cc1c(CN2CCC(Nc3ncnc4sc(CC(F)(F)F)cc34)CC2)ccc2[nH]c(C#N)cc12 [MI 463],showed evidence of inducing Cerulean expression
4,CN(C)CCCNC(=O)c1ccc(-c2cc(O)c3ncccc3c2)cc1 [ML324],showed evidence of inducing Cerulean expression
5,CN1CCN(c2ccc(-c3cccc(CN4CCOCC4)c3)cc2NC(=O)c2c[nH]c(=O)cc2C(F)(F)F)CC1 [OICR-9429],showed evidence of inducing Cerulean expression
6,C1=C/COCc2cc(ccc2OCCN2CCCC2)Nc2nccc(n2)-c2cccc(c2)COC/1 [Pacritinib],showed evidence of inducing Cerulean expression
7,O=C(Nc1ccccc1-c1cn2c(CN3CC[C@@H](O)C3)csc2n1)c1ccc2ccccc2c1 [SSRT2183],showed evidence of inducing Cerulean expression
8,COc1cc2c(Nc3ccc(NC(=O)c4ccccc4)cc3)ncnc2cc1OCCCN1CCOCC1 [ZM 447439],showed evidence of inducing Cerulean expression
9,BI 847325,showed evidence of inducing Cerulean expression

# Same assay, conditions: first library of 127 compounds; 5-15 days of treatment; at least 9 different replicates; U0126 39 μM, SC 79 110 μM, KU 0063794 3 μM
row,Compound,induction of Cerulean expression (blue fluorescent cells) in PGP1-derived RPE
1,COc1ccc(-c2ccc3c(N4CCOCC4)nc(N4C[C@@H](C)O[C@@H](C)C4)nc3n2)cc1CO [KU 0063794],produced blue fluorescent cells
2,CCOC(=O)C1=C(N)Oc2ccc(Cl)cc2C1C(C#N)C(=O)OCC (stereo not shown) [SC 79],produced blue fluorescent cells
3,N#CC(=C(/N)Sc1ccccc1N)/C(C#N)=C(\N)Sc1ccccc1N [U0126],produced blue fluorescent cells
